How the values were obtained:
Akt(T308) = assay: Phospho-Akt(T308) in PC3 cell lysates, MSD; type: cell-based, human; conditions: PC3, 1 hour exposure; read-out: p-Akt(T308) IC50
Text: (§1) The direct substrate for TORC1 was 4E-BP 1(T46) and indirect downstream substrate was S6RP(S235/S236). The direct substrate for TORC2 was Akt(S473) and indirect downstream substrates measured were GSK3β(S9) and PRAS40(T246). Additionally, the phosphorylation status of Akt(T308), a phosphorylation site for PDK1 was monitored.
MSD® biomarker detection assays provide a rapid and convenient method for measuring the total and phosphorylated levels of protein targets within a single small volume sample. These assays are available in both single-plex and multiplex formats. In a single-plex assay, an antibody for a specific protein target is coated on one electrode (or spot) per well. […] MSD Read Buffer that provides the appropriate chemical environment for ECL is added and the plate is read using an MSD SECTOR™ Imager. […] The instrument measures intensity of the emitted light to afford a quantitative measure of the amount of phosphorylated Akt or S6RP present in the sample. […]
The assay plate was incubated with 150 μL of MSD Blocker A Solution for 1 hour with shaking at room temperature. […] Then 150 μL of 1×MSD Read Buffer T was added to each well. The plate was read on the SECTOR Imager plate reader. The Excel data was transferred to Activity Base and IC50 values were calculated.
All data was analyzed using XLfit from IDBS. […]

PRAS40(T246) = assay: Phospho-PRAS40(T246) in PC3 cell lysates, Luminex multiplex; type: cell-based, human; conditions: PC3, 1 hour exposure; read-out: p-PRAS40 (T246) IC50
Text: as §1
The multiplex Luminex assay format differs from conventional enzyme-linked immunosorbent assay (ELISA) in that the multiplex capture antibody is attached to a polystyrene bead whereas the ELISA capture antibody is attached to the microplate well. The use of the suspension bead-based technology enables the multiplexing capabilities of the Luminex assays. The xMAP® technology uses 5.6 micron polystyrene microspheres, which are internally dyed with red and infrared fluorophores of differing intensities. Each bead is given a unique number, or bead region, allowing differentiation of one bead from another. Beads covalently bound to different specific antibodies can be mixed in the same assay, utilizing a 96-well microplate format. At the completion of the sandwich immunoassay, beads can be read, using the Luminex 100™ or Luminex 200 detection system, in single-file by dual lasers for classification and quantification of each analyte. […]

IC50 (Akt(T308)): 0.13 µM
IC50 (PRAS40(T246)): 0.14 µM
Compound: CO[C@H]1CC[C@H](N2C(=O)CNc3ncc(-c4ccc(C(C)(C)O)nc4)nc32)CC1 [Compound 1, 7-(6-(2-hydroxypropan-2-yl)pyridin-3-yl)-1-((1r,4r)-4-methoxycyclohexyl)-3,4-dihydropyrazino-[2,3-b]pyrazin-2(1H)-one]
